{"source": "a melting point compilation (Tetko et al.; mined from patent text by program, amines drawn as free bases though some values may be those of a salt)"}
{"units": {"melting point": "°C"}}
{"smiles": "CN1CCC(O)(c2cccn2Cc2ccccc2F)CC1", "melting point": "164 to 165"}
{"smiles": "COC(=O)C1=C(C)NC(c2sc(C)nc2C)=NC1c1ccc(F)cc1Cl", "note": "(stereo not given)", "melting point": "116 to 118"}
{"smiles": "O=C1NC(=O)C(Cc2ccc(OCCON=Cc3ccc4ccccc4n3)cc2)S1", "note": "(stereo not given)", "melting point": "164 to 166"}
{"smiles": "CN(CCCNc1ncc(Cc2ccc(Cl)c(Cl)c2)c(=O)[nH]1)c1ccccn1", "melting point": "86 to 92"}
{"smiles": "c1ccc2oc(-c3ccncc3)nc2c1", "melting point": "129 to 131"}
{"smiles": "CSc1nc(-c2ccc(S(C)(=O)=O)cc2)n(-c2ccc(C)cc2)c(=O)c1C#N", "melting point": "242 to 244"}
{"smiles": "CC(C)CSc1ccc(-c2nc(=O)c3ccccc3s2)cn1", "melting point": "92.8 to 93.1"}
{"smiles": "NC(c1ccnc(F)c1)C(O)c1cccc(C(F)(F)F)c1", "note": "(stereo not given)", "melting point": "128 to 129"}
{"smiles": "COc1ccc(C(=O)NC(=S)NCc2ccccc2C(N)=O)cc1", "melting point": "140 to 143"}
{"smiles": "CCn1nc(-c2ccccc2)c(C(C)=O)c(Nc2cc(C)no2)c1=O", "melting point": "178 to 179"}
{"smiles": "O=C1OCC2=C1C(c1ccccc1Cl)c1c[nH]nc1N2", "note": "(stereo not given)", "melting point": "> 270"}
{"smiles": "C=C(Br)Cc1cccs1", "melting point": "69 to 71"}
{"smiles": "CC1(C)CN(c2ncc(C(=O)N(c3cccc(C(F)(F)F)c3)C3CCCC3)c(N)n2)C(=O)N1", "melting point": "135 to 139"}
{"smiles": "CC(=O)CC(=O)Nc1nnc(C(C)(C)C)s1", "melting point": "166 to 168"}
{"smiles": "CS(=O)(=O)Nc1ccc(C=O)cc1F", "melting point": 151}
{"smiles": "CCCC1COC(Cn2nc[nH]c2=S)(c2ccc(Cl)cc2Cl)O1", "note": "(stereo not given)", "melting point": 128}
{"smiles": "CC(=O)Oc1ccc(C(=O)O)cc1C(C)(C)C", "melting point": "123 to 125"}
{"smiles": "CC(C)(C)c1ccc(S(=O)(=O)N(Cc2cc(C(C)(C)C)c(O)c(C(C)(C)C)c2)c2cccnc2)cc1", "melting point": "155 to 156"}
{"smiles": "CCC(C(=O)Oc1cc(=O)n(-c2ccccc2)c2ncccc12)c1ccccc1", "note": "(stereo not given)", "melting point": "166 to 168"}
{"smiles": "Cn1cc(S(N)(=O)=O)c(=O)c2ccccc21", "melting point": "230 to 231"}
{"smiles": "COc1ccc2c(c1)CC(C)C2=O", "note": "(stereo not given)", "melting point": "73 to 76"}
{"smiles": "CCNC(=O)c1cc(NCn2nnc3ccccc32)ccc1[Si](C)(C)C", "melting point": "207 to 208"}
{"smiles": "COc1cc(COc2nc(-c3ccccc3)ncc2CO)ccc1OCc1nc(-c2ccco2)oc1C", "melting point": "150 to 151"}
{"smiles": "Cc1nn(-c2ccccn2)c2nccc(O)c12", "melting point": "241 to 243"}
{"smiles": "CCOC(=O)c1nnc2ccc(NC(=O)c3ccccc3OC(C)=O)cc2c1O", "melting point": "240 to 242"}
{"smiles": "N#CCCn1[nH]c(C#N)cc1=O", "melting point": "162 to 164"}
{"smiles": "Cn1c(=O)oc2cc(CCBr)ccc21", "melting point": "104 to 106"}
{"smiles": "O=[N+]([O-])c1ccc2c(c1)CCCCN2", "melting point": "73 to 75"}
{"smiles": "CCOC(=O)C(=O)Nc1ccc2c(=O)n3c(nc2c1)C(=Cc1ccccc1)CC3", "melting point": "248 to 250"}
{"smiles": "CC1(C)CCc2c1ccc1c2CCc2cc(O)ccc2-1", "melting point": "152 to 153"}
{"smiles": "CCOC(=O)Oc1ccc([N+](=O)[O-])c(C(=O)O)c1", "melting point": "132 to 137"}
{"smiles": "C#CCOC(=O)C1=C(C)N2CCNC2=C(C(=O)OCC)C1c1cccc([N+](=O)[O-])c1", "note": "(stereo not given)", "melting point": 153}
{"smiles": "CCCCCCCN(C)C(=O)Nc1ccc(F)cc1NC(=O)c1cc(C(C)(C)C)c(O)c(C(C)(C)C)c1", "melting point": "164 to 167"}
{"smiles": "CCc1c(Cc2[nH]c(Cc3[nH]c(C=O)c(C)c3CC)c(CC)c2CC)[nH]c(C=O)c1C", "melting point": "202 to 203"}
{"smiles": "CC(=NOCCOc1ccc(CC2SC(=O)NC2=O)cc1)c1ccc2ccccc2c1", "note": "(stereo not given)", "melting point": "138 to 139"}
{"smiles": "Nc1cc(NS(=O)(=O)CCl)ccc1F", "melting point": "128 to 129"}
{"smiles": "C=Cc1ccc(C(C#N)C#N)cc1", "melting point": "40 to 42"}
{"smiles": "CCN1CCN(c2ccc(Br)nc2)CC1", "melting point": "30 to 31"}
{"smiles": "CCCc1nn(-c2ccc(C(F)(F)F)cn2)cc1CCCCOc1cc(CCC(=O)O)n(-c2ccccc2)n1", "melting point": "123 to 124"}
{"smiles": "CC(O)=C(C#N)C(=O)Nc1ccc(C(C)(C)C)cc1", "melting point": "134 to 135"}
{"smiles": "Cc1ccc(C(=O)N2CCCC(c3ccc(Cl)cc3)=N2)cc1", "melting point": "163 to 166"}
{"smiles": "COc1sc(-c2csc(C(N)=O)n2)c(Cl)c1C", "melting point": "201 to 203"}
{"smiles": "Fc1cccc(Cl)c1-c1c(Cl)cc(Cl)nc1Cl", "melting point": 210}
{"smiles": "COc1cc(Cl)cnc1OCC#Cc1ccc(Cl)nc1", "melting point": 94}
{"smiles": "O=C(ON1CCC(c2nsc3ccccc23)CC1)c1ccccc1", "melting point": "84 to 85"}
{"smiles": "O=C(O)COc1cc(Cl)ccc1C(=O)NCc1ccc2c(c1)OCO2", "melting point": "208 to 209"}
{"smiles": "CCCCCCc1ccc(-n2c(-c3ccc(Br)cc3)ccc2-c2ccc(Br)cc2)cc1", "melting point": "198 to 199"}
{"smiles": "O=C(OCCN1CCNC1=O)c1ccccc1", "melting point": "130 to 132"}
{"smiles": "Cc1c(-c2ccc(NC(=O)C(C)C)cc2)sc2c1c(=O)c(C(=O)C(C)C)cn2Cc1c(F)cccc1F", "melting point": "219 to 222"}
{"smiles": "COc1ccccc1NS(=O)(=O)c1ccc(C)cc1", "melting point": "126 to 128"}
{"smiles": "NC(=O)c1cccc(OCCCCCCBr)c1", "melting point": "115 to 117"}
{"smiles": "Cc1cn(C(=O)OC(C)(C)C)c2ccc(Br)cc12", "melting point": 92}
{"smiles": "COc1c(Br)c(CO)c(OC)c2ccccc12", "melting point": "115 to 117"}
{"smiles": "c1ccc(N2CCN(c3nn(-c4ccccc4)c4ccccc34)CC2)cc1", "melting point": "129 to 130"}
{"smiles": "C#Cc1ccc2c(c1)C(=O)N(C(C)(C)C)CC(=O)N2", "melting point": "216 to 219"}
{"smiles": "CC(C)(C)C(=O)NCCc1ccc(O)c(O)c1", "melting point": "144 to 146"}
{"smiles": "Cc1nc(C(O)(c2ccsc2)C(F)(F)F)sc1C", "note": "(stereo not given)", "melting point": "90 to 92"}
{"smiles": "O=C(NCCn1cncn1)c1ccco1", "melting point": "131 to 133"}
{"smiles": "Clc1ccc2c(c1)CCC(c1ccccc1)S2", "note": "(stereo not given)", "melting point": "91 to 93"}
{"smiles": "O=[N+]([O-])c1ccc2c(c1)nc(/C=C/c1ccccc1)n2-c1ccccn1", "melting point": "200 to 202"}
{"smiles": "CNS(=O)(=O)c1ccccc1Nc1nc(Nc2ccc3c(c2)CCCC(=O)N3CC(=O)N2CCN(C)CC2)ncc1Cl", "melting point": "148 to 151"}
{"smiles": "CC(=O)N1CCC2(CC1)C(=O)N(CC(=O)Nc1c(C(C)C)cccc1C(C)C)C(=O)N2c1ccc(C)cc1", "melting point": "136 to 138"}
{"smiles": "C=CCc1cc(C(=O)c2ccccc2)c(O)cc1OCCCCC#N", "melting point": "60 to 62"}
{"smiles": "COc1ccc(-c2ccc3c(n2)[nH]c2ccccc23)cc1", "melting point": "> 220"}
{"smiles": "O=C1c2cccc3c4c(cc(c23)C(=O)N1O)OCO4", "melting point": "303 to 304"}
{"smiles": "O=C(O)Cn1ccc(=O)n(Cc2cccc([N+](=O)[O-])c2)c1=O", "melting point": "161 to 162"}
{"smiles": "CCc1nnc(NC(=O)C(c2ccccc2)c2ccccc2)o1", "melting point": "123 to 125"}
{"smiles": "N#Cc1cc(N)n(-c2c(Cl)cc(C(F)(F)F)cc2Cl)n1", "melting point": "117 to 118"}
{"smiles": "CCCCc1nc(Cl)c(C=O)n1Cc1cccc2c1ncn2-c1ccccc1C#N", "melting point": "117 to 135"}
{"smiles": "CC1(C)C(=O)Nc2cc3oc(-c4ccncc4)nc3cc21", "melting point": "336 to 338"}
{"smiles": "CCC(CC)Cn1c(=O)c(=O)[nH]c2cc([N+](=O)[O-])c(-n3cccc3C(=O)OC)cc21", "melting point": "240 to 241"}
{"smiles": "COC(=O)C[C@@H]1C[C@@H](COc2ccc(-c3ccc(C#N)cc3)cc2N)N(CCCc2ccccc2)C1=O", "melting point": "111 to 112"}
{"smiles": "COc1nn(-c2ccc(C)c3c2OC(C)(C)C3)c(=O)o1", "melting point": "60 to 62"}
{"smiles": "COc1ccc(-c2ccc(NN)nn2)cc1OC(C)C", "melting point": 116}
{"smiles": "CCn1cc(C(=O)O)c(=O)c2cc(F)c(C)c(F)c21", "melting point": "245 to 248"}
